From US20170239351A1, “Therapeutic Combinations of a BTK Inhibitor, a PI3K Inhibitor, a JAK-2 Inhibitor, a PD-1 Inhibitor, and/or a PD-L1 Inhibitor” (Acerta Pharma B.V., priority 2014, published 2017)

Tests used:
[1] = tested on: human platelet-mediated thrombosis; design: species or system VWF HA1 mice (human platelets); details: in vivo
Procedure: […]. Injury to the vessel wall of arterioles ([…] diameter) was performed using a pulsed nitrogen dye laser (440 nm, Photonic Instruments) applied through a 20× water-immersion Olympus objective (LUMPlanF1, 0.5 numerical aperature (NA)) of a Zeiss Axiotech vario microscope. Human platelet and wall interactions were visualized by fluorescence microscopy using a system equipped with a Yokogawa CSU-22 spinning disk confocal scanner, iXON EM camera, and 488 nm and 561 nm laser lines to detect BCECF-labeled and rhodamine-labeled platelets, respectively (Revolution XD, Andor Technology). The extent of thrombus formation was assessed for 2 minutes after injury and the area (μm^2) of coverage determined (Image IQ, Andor Technology).
. The BTK inhibitor-treated human platelets were fluorescently labeled and infused continuously through a catheter inserted into the femoral artery. Their behavior in response to laser-induced vascular injury was monitored in real time using two-channel confocal intravital microscopy (Furie and Furie, J. Clin. Invest. 2005, 115(12), 2255-62). Upon induction of arteriole injury untreated platelets rapidly formed thrombi with an average thrombus size of […] (mean±s.e.m.), as shown in FIG. 124 and FIG. 125. […]. […]. […]

primary CLL cells = assay: Rituximab ADCC assay (51Cr release), NK cells against autologous tumor cells; type: cell-based, human; details: 1 μM; primary CLL samples
relapsed/refractory CLL = assay: Clinical study of Formula (XVIII) in relapsed/refractory CLL/SLL
human platelets = assay: GPVI (convulxin-induced) platelet aggregation; type: cell-based
Procedure: GPVI platelet aggregation was measured for Formula (XVIII) and Formula (XX-A) (ibrutinib). Blood was obtained from untreated humans, and platelets were purified from […] by centrifugation. Cells were resuspended to a final concentration of 350,000/μL in buffer containing 145 mmol/L NaCl, 10 mmol/L HEPES, 0.5 mmol/L Na2HPO4, 5 mmol/L KCl, 2 mmol/L MgCl2, 1 mmol/L CaCl2, and 0.1% glucose, at pH 7.4. Stock solutions of Convulxin (CVX) GPVI were prepared on the day of experimentation and added to platelet suspensions 5 minutes (37° C., 1200 rpm) before the induction of aggregation. Aggregation was assessed with a Chronolog Lumi-Aggregometer (model 540 VS; Chronolog, Havertown, Pa.) and permitted to proceed for 6 minutes after the addition of agonist. The results are reported as maximum percent change in light transmittance from baseline with platelet buffer used as a reference.
In FIG. 129, the results of CVX-induced (250 ng/mL) human platelet aggregation results before and 15 minutes after administration of the BTK inhibitors to 6 healthy individuals are shown.

CC#CC(=O)N1CCC[C@H]1c1nc(-c2ccc(C(=O)Nc3ccccn3)cc2)c2c(N)nccn12 [Formula (XVIII), (S)-4-(8-amino-3-(1-(but-2-ynoyl)pyrrolidin-2-yl)imidazo[1,5-a]pyrazin-1-yl)-N-(pyridin-2-yl)benzamide]
effect on thrombus formation [1]: does not interfere with thrombus formation
effect on rituximab-mediated ADCC (primary CLL cells): not inhibited
PD, % (relapsed/refractory CLL; 100 mg BID (N = 3)): (0) %
PR, % (relapsed/refractory CLL; 100 mg BID (N = 3)): (100) %
PD, % (relapsed/refractory CLL; 100 mg QD (N = 8)): (0) %
PR, % (relapsed/refractory CLL; 100 mg QD (N = 8)): (88) %
PD, % (relapsed/refractory CLL; 175 mg QD (N = 8)): (0) %
PR + L, % (relapsed/refractory CLL; 175 mg QD (N = 8)): (37) %
PR, % (relapsed/refractory CLL; 175 mg QD (N = 8)): (63) %
PD, % (relapsed/refractory CLL; 250 mg QD (N = 7)): (0) %
PR + L, % (relapsed/refractory CLL; 250 mg QD (N = 7)): (29) %
PR, % (relapsed/refractory CLL; 250 mg QD (N = 7)): (71) %
PD, % (relapsed/refractory CLL; 400 mg QD (N = 5)): (0) %
PR + L, % (relapsed/refractory CLL; 400 mg QD (N = 5)): (40) %
PR, % (relapsed/refractory CLL; 400 mg QD (N = 5)): (40) %
PD, % (relapsed/refractory CLL; All Cohorts (N = 31)): (0) %
PR + L, % (relapsed/refractory CLL; All Cohorts (N = 31)): (23) %
PR, % (relapsed/refractory CLL; All Cohorts (N = 31)): (71) %
time of treatment to reach the same median % change in SPD (relapsed/refractory CLL; CLL patients): 7 months
Headache, treatment-related adverse event (relapsed/refractory CLL; Grade 1/2, All (N = 44)): 7 (16) n (%)
Diarrhea, treatment-related adverse event (relapsed/refractory CLL; Grade 1, All (N = 44)): 4 (9) n (%)
Increased tendency to bruise, treatment-related adverse event (relapsed/refractory CLL; Grade 1, All (N = 44)): 6 (14) n (%)
Petechiae, treatment-related adverse event (relapsed/refractory CLL; Grade 1, All (N = 44)): 3 (7) n (%)
dose-limiting toxicities (DLTs) (relapsed/refractory CLL; human, in vivo): No DLTs were observed
grade of adverse events (relapsed/refractory CLL; human, in vivo): only grade 1 AEs were observed
lymphocytosis (relapsed/refractory CLL; human, in vivo): A lack of lymphocytosis was observed
plasma CXCL12 and CCL2 levels (relapsed/refractory CLL; human, in vivo): significant decrease
treatment-related serious adverse events (SAEs) (relapsed/refractory CLL; human, in vivo): No treatment-related serious adverse events (SAEs) were observed
progression in patients with the 17p deletion (relapsed/refractory CLL; to date): no 17p patients have progressed
GPVI platelet aggregation (human platelets): does not
